Test results taken from US20110281834A1, “Pharmaceutical Formulations for Iontophoretic Delivery of a Corticosteroid” (priority 2008, published 2011).
Like-named read-outs stand apart in the source and are kept apart here. One block for each compound: values may come before it.

Tests used:
[1] = Iontophoretic drug permeation through hairless rat skin in Franz diffusion cells; format: in vitro ADME
Experimental: Full thickness abdominal skin freshly excised from sacrificed hairless rats was equilibrated in the receptor buffer and mounted on Franz diffusion cells (0.64 cm^2). The donor compartment (0.5 ml) contained corticosteroid in an appropriate buffer. […] For triamcinolone acetonide (TMCA), 3.5 mg/mL TMCA formulation (in 25% w/w PEG 400, 25% ETOH, 15% cremophor RH40, qs to 100% with citrate buffer pH 5.0) was used for the donor compartment. […] The receptor compartment for TMCA was citrate buffer with 20% ethanol. […] TMCA has no charge at pH 5 and was therefore delivered by anodal iontophoresis to utilize electroosmosis. […] For TMCA, the anode (Silver-Silver Chloride) was placed in the donor chamber along with drug solution and the cathode (Silver wire) was placed in the receptor chamber. Electric current (0.2 to 0.4 mA/cm^2) was applied using a custom current control device for up to 1 hr, after which experiments were either terminated or allowed to continue passively for various durations. Samples (0.3 ml) were taken from the receptor chamber at predetermined time points following iontophoresis and were replaced with the same amount of receptor buffer. The apparatus was maintained at 37° C. with constant stirring in both the donor and receptor compartments to maintain sink conditions. The samples were then analyzed by HPLC to measure drug permeation through skin. […] The mobile phase consisted of 75/25 ammonium acetate (5 mM) and acetonitrile. For TMCA, samples of receptor fluid (injection volume 20 uL, run time 8 min) were analyzed using the same HPLC system with a flow rate of 0.8 ml/min and UV detection at 237 nm. The mobile phase consisted of 70/30 methanol and water. […] Control passive experiments were conducted in the same way except for the application of electric current. Data were expressed as means±standard deviations. All experiments were performed in at least triplicate.
Samples were removed periodically from the receptor and analyzed by HPLC.
Samples were measured periodically from the receptor and analyzed by HPLC over 24 hrs.
(§1) The effect of iontophoresis on the intradermal and transdermal permeation of TMCA using hairless rat skin in vitro was investigated using methods previously described. In addition, the amount of drug deposited in the stratum corneum and underlying skin after iontophoresis was quantified in vivo using tape stripping and skin extraction methods described previously. TMCA (3.5 mg/ml) was formulated in 15% cremophor RH40, 25% PEG 400 and 25% ethanol (95%), in citrate buffer pH 5.0. Anodal iontophoresis was performed for 1 h at 0.2 mA/cm^2.

[2] = Solubility in solubilizer solutions (shaken overnight, supernatant by HPLC); format: physicochemical; settings: for solubility: solubilizer solution, thermodynamic from solid, read-out: Solubility, Final conc
Experimental: Triamcinolone acetonide is poorly ionized and has a poor solubility profile; to overcome this, individual as well as combinations of potential solubilizers were tested. TMCA (2.5 mg) was mixed into 1 mL of the individual components or mixtures of potential solubilizers and shaken overnight; drug was then added to all clear solutions which were then mixed overnight. The samples were then centrifuged and the supernatants analyzed by HPLC to determine drug solubility.
DEX-P (100 mg) was mixed into 1 mL of the individual components or mixtures of potential solubilizers and shaken overnight. Additional drug (100 mg) was added to clear solutions and mixed overnight. The samples were then centrifuged and the supernatants analyzed by HPLC to determine drug solubility.

[3] = In vivo skin delivery: tape stripping (stratum corneum) and skin extraction (underlying skin); set-up: species or system hairless rat
Excerpt: After wiping excess drug off the skin using a moist kimwipe, pre-weighed tape strips were placed on the area exposed to the drug and made sure they adhered to the skin by rolling with a glass rod for 30 seconds. After rolling, the tape strips were held from one end with a pair of forceps and ripped off the skin very quickly. The first strip was discarded to remove the remnants of the drug on the skin. This process was continued with 30 strips to fully remove the stratum corneum and each strip analyzed for drug content by immersing in 1 mL extraction buffer for 1 hr under gentle stirring (150 rpm). […] All tape strip extracts were analyzed with HPLC. […] TEWL values were also recorded after every five strips.
After tape stripping, the rats were euthanized and the underlying skin excised. Before proceeding for skin extraction studies, the weight of the excised skin piece was recorded. This excised skin was minced into small pieces and placed into glass vials. To this minced skin, 1 mL deionised water was added and shaken for 30 minutes on a shaker. To this 100 μL of 0.1% HCl was added and centrifuged. To the centrifuged sample 6 mL of methylene chloride was added and shaken for 30 minutes. The methylene chloride (organic) extract was then evaporated under nitrogen. The methylene chloride addition and evaporation step was repeated and combined with the previous extraction. After evaporation, the samples were reconstituted using 1 mL of acetonitrile, filtered and filled in HPLC vials and analyzed accordingly. For TMCA, 30/70 chloroform and methanol was used as the extraction solvent. […] The measured drug levels from the skin were corrected for recovery.
as §1
Hairless rats (n=4 per group) were anesthetized with ketamine (75 mg/kg) and xylazine (10 mg/kg) administered intraperitoneally. Once the rats were anaesthetized, the abdominal area was wiped with water and alcohol swabs. The cartridge loaded with the donor formulation was placed on the abdomen of each rat and connected to the power supply (Keithley Instruments, Cleveland, Ohio) for cathodal delivery. The counter electrode was placed around 3 cm away from the drug cartridge, and connected to the respective polarity of the power supply. The cartridge and the counter electrode were made sure to be in contact with the skin and a bandage was placed to prevent them from any further movement. Skin portion around the cartridge approximately 0.5 cm was marked for excision after the study to determine the lateral diffusion of the drug. Iontophoresis was conducted at a current density of 0.2 mA/cm^2 for 15 or 60 minutes. The donor cartridge was removed from the skin after iontophoresis and the skin was wiped with a moist kimwipe to remove any remaining drug on the skin. The skin was then tape stripped (30 strips) to remove the stratum corneum and the drug in the strips evaluated (with the first strip discarded for surface drug removal). The drug in the underlying skin was then extracted.

[4] = cathodal 0.2 mA/cm2 for 15 minutes, FIG. 6B
[5] = cathodal 0.2 mA/cm^2 for 60 minutes, FIG. 6A
[6] = 3.5 mg/ml, pH 5.0, anodal iontophoresis 0.2 mA/cm^2 for 1 h
[7] = 3.5 mg/ml, pH 5.0, passive delivery

cumulative permeation over 24 hrs, passive ([1]; 25 mg/mL in phosphate buffer pH 7.4, passive delivery (no current), FIG. 2): initially low but gradual increase
permeation over time, 4 hr iontophoresis ([1]; 25 mg/mL, pH 7.4, cathodal 0.4 mA/cm^2 for 4 hr, FIG. 3): highest permeation
permeation over time, 25 and 50 mg/mL ([1]; 25 and 50 mg/mL in phosphate buffer pH 7.4, cathodal 0.2 mA/cm^2 for 1 hr, 24 hrs, FIG. 4): similar
solubility ([2]; aqueous buffer, Phosphate buffer): 70000 µg/mL
solubility ([2]; aqueous with cosolvent or surfactant or cyclodextrin, 15% ethanol (95%), 20% PEG400, 20% glycerin, in phosphate buffer (w/w)): 156000 µg/mL
solubility ([2]; aqueous with cosolvent or surfactant or cyclodextrin, 15% ethanol (95%), 30% PEG400, 20% glycerin, in phosphate buffer (w/w)): 197000 µg/mL
initial drug level in stratum corneum, iontophoresis 15 min [3, 4]: 13.63 ± 2.4 µg
initial drug level in underlying skin, iontophoresis 15 min [3, 4]: 1.70 ± 1.70 µg
amount in stratum corneum, iontophoresis 60 min [3, 5]: 23.70 ± 6.19 µg
amount in underlying skin, iontophoresis 60 min [3, 5]: 2.18 ± 0.69 µg
total delivered into skin, iontophoresis ([3]; phosphate buffer pH 7.4, cathodal 0.2 mA/cm^2 for 60 minutes, immediately after, FIG. 6A): 25.88 ± 5.91 µg
total delivered into skin, passive ([3]; phosphate buffer pH 7.4, passive treatment 60 minutes, FIG. 6A): 13.31 ± 2.69 µg
drug in peripheral skin areas outside the contact area (lateral diffusion) ([3]; skin about 0.5 cm around the cartridge): No drug was detected
Structure (SMILES): C[C@@H]1C[C@H]2[C@@H]3CCC4=CC(=O)C=C[C@]4(C)[C@@]3(F)[C@@H](O)C[C@]2(C)[C@@]1(O)C(=O)COP(=O)(O)O [DEX, dexamethasone sodium phosphate]
permeation over time, 10 mg/mL ([1]; 10 mg/mL in phosphate buffer pH 7.4, cathodal 0.2 mA/cm^2 for 1 hr, 24 hrs, FIG. 4): lower permeation over time compared to the higher drug concentrations
cumulative permeation over 24 hrs, iontophoresis ([1]; 25 mg/mL in phosphate buffer pH 7.4, cathodal 0.4 mA/cm^2 for 1 hr, sampled 24 hrs, FIG. 2): increased quite rapidly during the initial several hours and continued to increase up to 24 hrs
cumulative permeation, cathodal vs anodal iontophoresis ([1]; 25 mg/mL, cathodal in phosphate buffer pH 7.4 vs anodal in citrate buffer pH 3.5, 0.4 mA/cm^2 for 2 hours, sampled for 24 hrs, FIG. 1): significant improvement in permeation compared to anodal iontophoresis
drug level in the skin over time after iontophoresis (depot) ([3]; 0.2 mA/cm2 for 15 minutes, measured 0, 24 and 48 hours after, FIG. 6C): decreased slowly over time and was detectable at 48 hrs after iontophoresis
localization of drug in skin, passive ([3]; passive group, 60 minutes): all of the drug was localized in the stratum corneum layer

Structure (SMILES): CC1(C)O[C@@H]2C[C@H]3[C@@H]4CCC5=CC(=O)C=C[C@]5(C)[C@@]4(F)[C@@H](O)C[C@]3(C)[C@]2(C(=O)CO)O1 [TMCA, triamcinolone acetonide]
levels in the receptor chamber ([1]; 3.5 mg/ml in 15% cremophor RH40, 25% PEG 400, 25% ethanol, citrate buffer pH 5.0, with or without anodal iontophoresis 0.2 mA/cm^2 for 1 h): No detectable levels
Solubility, Final conc ([2]; 15% cremophor, 25% ethanol, 25% PEG 400 (w/w)): 4420 µg/mL
Solubility, Final conc ([2]; 15% cremophor, 25% ethanol, 25% PEG 3350 (w/w)): 1980 µg/mL
solubility ([2]; aqueous with cosolvent or surfactant or cyclodextrin, 5% tween 80 (w/w)): 120 µg/mL
solubility ([2]; aqueous with cosolvent or surfactant or cyclodextrin, 15% cremophor (w/w)): 480 µg/mL
solubility ([2]; aqueous with cosolvent or surfactant or cyclodextrin, 15% cremophor, 25% ethanol (w/w)): 1380 µg/mL
solubility ([2]; aqueous with cosolvent or surfactant or cyclodextrin, 15% cremophor, 25% ethanol, 25% glycerin (w/w)): 2430 µg/mL
solubility ([2]; aqueous with cosolvent or surfactant or cyclodextrin, 15% cremophor, 50% PEG 400 (w/w)): 1240 µg/mL
solubility ([2]; aqueous with cosolvent or surfactant or cyclodextrin, 15% cremophor, 50% glycerin (w/w)): 1180 µg/mL
solubility ([2]; aqueous with cosolvent or surfactant or cyclodextrin, 25% PEG 400 (w/w)): 70 µg/mL
solubility ([2]; aqueous with cosolvent or surfactant or cyclodextrin, 25% PEG 3350 (w/w)): 80 µg/mL
solubility ([2]; aqueous with cosolvent or surfactant or cyclodextrin, 25% Propylene glycol (w/w)): 60 µg/mL
solubility ([2]; aqueous with cosolvent or surfactant or cyclodextrin, 25% ethanol (w/w)): 230 µg/mL
solubility ([2]; aqueous with cosolvent or surfactant or cyclodextrin, 25% glycerin (w/w)): 30 µg/mL
amount deposited in the underlying skin after tape stripping, iontophoresis [3, 6]: 1.15 ± 0.32 µg
amount in the stratum corneum, iontophoresis [3, 6]: 16.43 ± 1.99 µg
amount deposited in the underlying skin after tape stripping, passive [3, 7]: 0.34 ± 0.08 µg
amount in the stratum corneum, passive [3, 7]: 19.66 ± 1.35 µg
